The values below come from US20180050033A1, “ANTIFUNGAL TREATMENT OF RHEUMATOID ARTHRITIS” (Gerbe Labs Inc., priority 2016, published 2018).

What all share (format): cell-based
Experiment [1] has as its system Aspergillus fumigatus MYA3626 spores. The experiment in a line: Broth microdilution MIC assay. Particulars: MYA3626SPORES. On the procedure:
(§1) Broth Microdilution Minimal Inhibitory Concentration (MIC) assays were performed to obtain the MIC values for Itraconazole and Ketoconazole with an antibiotic (Vancomycin or Tobramycin or Amikacin) against the two fungal strains.
(§2) Fungal strains: Aspergillus fumigatus MYA3626 and Candida albicans ATCC 90028 strains were obtained from the American Type Culture Collection (Manassas, Va.). The strains were maintained as a frozen glycerol stocks at −80° C. The fungal strains were prepared by thawing a glycerol stock, streaking and growing onto Sabouraud's Dextrose Agar (SDA) plates, overnight at 35±2° C. in aerobic conditions and used for the assay.
(§3) Antifungal agents: Itraconazole (Cat #16657, Lot #087K1322), Ketoconazole (Cat # K1003, Lot # SLBR1290V). Stocks were prepared in appropriate solvents following the CLSI guidelines. See, for example, Reference method for broth dilution antifungal susceptibility testing of filamentous fungi, approved standard, 2nd ed. CLSI document M38-A2, vol. 28. CLSI, Wayne, Pa. (2008).
(§4) The completely synthetic medium RPMI-1640 (with glutamine, without bicarbonate, and with phenol red as a pH indicator) was buffered with 0.165 mol/L MOPS (3-[N-morpholino] propanesulfonic acid) buffer was used as the growth medium for the fungal strains. Overnight cultures of the fungal strains were grown on Difco™ Sabouraud's Dextrose Agar (SDA) plates at 35° C. To induce conidium and sporangiospore formation, the culture plates were transferred to incubator and grown for 5-7 days 30° C. or until good sporulation was obtained. Approximately, 10 mL of 0.85% saline containing 0.01% of Tween 80 was used to poured on to the agar plate containing conidia or sporangiospores and hyphal fragments. The suspension containing conidia or sporangiospores and hyphal fragments was aspirated and transferred to a sterile tube. This mixture was filtered to separate the spores from the vegetative cells of the fungi. The supernatant containing only fungal spores was used for all the assays. Fungal spore inoculum was prepared in RPMI-1640 (with glutamine, without bicarbonate, and with phenol red as a pH indicator) was buffered with 0.165 mol/L MOPS (3-[N-morpholino] propanesulfonic acid) buffer to a final density of 10^6 CFU/mL using a hemocytometer.
(§5) Each MIC assay included 11 2-fold serial dilutions of the antifungal agents. Test concentrations for the test articles were tested at the following concentrations: 64 μg/mL, 32 μg/mL, 16 μg/mL, 8 μg/mL, 4 μg/mL, 2 μg/mL, 1 μg/mL, 0.5 μg/mL, 0.25 μg/mL, 0.125 μg/mL, and 0.0625 μg/mL. Broth microdilution assays were performed according to the procedures detailed in CLSI document M38-A2 (CLSI, 2008). Briefly, 2× stock solutions of test articles were prepared at 128 μg/mL. A two-fold serial dilution of the stock solution were performed. Diluted stock solutions of the fungal spores were adjusted (to be equivalent to 10^6 CFU/mL). 1× final concentration of the antifungals was obtained when they were combined with the fungal spore broth in the microtiter plate. Plates were incubated for 3-5 days at 35±2° C. in an ambient air incubator. MIC values recorded are the minimum concentration of the test articles that inhibits growth as observed by unaided eye. The MIC values was expressed in μg/mL. The assay was carried out in duplicates.

Experiment [2] concerns Candida albicans ATCC 90028 spores. The experiment in a line: Broth microdilution MIC assay. The following applies: Candida albicans alone. On the procedure: as §1, §2, §3, §4, §5
The subject of experiment [3] is co-culture of Aspergillus fumigatus + Candida albicans spores (1:1). Put plainly: Broth microdilution MIC assay, co-culture. On the procedure:
as §1, §2, §3, §4, §5

In experiment [4] the test system is Aspergillus fumigatus MYA3626 spores. The experiment in a line: Checkerboard synergy assay. Particulars: MYA3626SPORES, FIG. 5 synergy data, agent alone. On the procedure:
(§6) This study evaluated the synergistic activity of 2 antifungal agents (Itraconazole and Ketoconazole) with an antibiotic (Vancomycin or Tobramycin or Amikacin) against the spores of 2 fungi; Aspergillus fumigatus MYA3626 and Candida albicans ATCC 90028; individually as well as in co-cultivation (Aspergillus fumigatus+Candida albicans). Synergy testing was carried out as per checkerboard assay by Victor Lorian methodology. See, for example, Lorian, V. Antibiotics in Laboratory Medicine. Edition 5: (2005).
(§7) In vitro activity of the test articles were tested in combination by the Checkerboard assay. See, for example, Lorian, V. Antibiotics in Laboratory Medicine. Edition 5: (2005). The assay was carried out in duplicates. The starting concentrations for the test articles was determined as per the MIC data. Two-fold serial dilutions of 8×MIC for the antifungal agents; Itraconazole and Ketoconazole was performed separately. When Itraconazole and Ketoconazole were combined in a microtiter plate, the concentration of both agents was 2×MIC. 1× final concentration of the antifungal agents were obtained when they were combined with the 10^6 CFU/mL fungal spore inoculum in the microtiter plate. The plates were incubated at 35° C. for 3-5 days. The assay plates were visually inspected to confirm the MIC endpoint and used to calculate the Fractional Inhibitory Concentration (FIC) Index to determine any synergistic interaction.
(§8) The FIC Index was calculated as follows:
(§9) FIC Index=FICA+FICB • where, A and B are the MIC of the test article and an antifungal in combination (in a single well). MICA and MICB are the MICs of each antifungal individually.
(§10) FIC Index value was used to categorize the interaction, as follows:
(§11) To determine if Itraconazole and Ketoconazole combination had synergistic antifungal activity, a synergy assay was carried out with Itraconazole (1 μg/mL, 0.5 μg/mL, 0.25 μg/mL, 0.125 μg/mL, 0.0625 μg/mL, 0.0312 μg/mL, and 0.0156 μg/mL) and Ketoconazole (8 μg/mL, 4 μg/mL, 2 μg/mL, 1 μg/mL, 0.5 μg/mL, 0.25 μg/mL, 0.125 μg/mL, 0.0625 μg/mL, 0.0312 μg/mL, 0.0156 μg/mL and 0.0078 μg/mL) against Aspergillus fumigatus alone, Candida albicans alone, and against Aspergillus fumigatus+Candida albicans co-culture.

Experiment [5] deals with Candida albicans ATCC 90028 spores. Put plainly: Checkerboard synergy assay. The following applies: ATCC90028, FIG. 6 synergy data, agent alone. As for the experimental part:
as §6, §7, §8, §9, §10, §11

For experiment [6], the system named is co-culture of Aspergillus fumigatus + Candida albicans spores (1:1). Put plainly: Checkerboard synergy assay, co-culture. The following applies: FIG. 7 synergy data, agent alone. On the procedure: as §6
as §7, with “The assay plates were visually inspected to confirm the MIC endpoint and used to calculate the Fractional Inhibitory Concentration (FIC) Index to determine any synergistic interaction.” left out
The FIC Index was calculated as follows: […]

The subject of experiment [7] is Candida albicans. Put plainly: Culture and sensitivity, Patient 7. The following applies: culture from Patient 7. An excerpt:
(§12) The patient underwent the standard workup for CRS, sleep disorder, and nasal obstruction, plus our diagnostic skin test and sinus CT scan.

For experiment [8], the system named is S. aureus, a gram negative bacteria. The experiment in a line: Culture and sensitivity, Patient 7. The following applies: culture from Patient 7.
Excerpt: as §12

Setting [9] is: Table 3, Aspergillus fumigatus alone, 10^6 CFU/mL spores, 3-5 days at 35° C.
Setting [10] is: Table 4, repeated MIC study, Aspergillus fumigatus alone.
[11] abbreviates: ATCC90028, Table 3, 10^6 CFU/mL spores, 3-5 days at 35° C., read-out: MIC.
[12] abbreviates: Aspergillus fumigatus, Table 3, read-out: MIC.
Where [13] appears, read: Aspergillus fumigatus, Table 4, repeated MIC study, agent alone, read-out: MIC.

Broadly, the MIC is the smallest concentration in the dilution series that meets the test's criterion for growth inhibition.

≈ marks a conversion by molar mass, not a printed value. Where only a bound is given, the exact number is not on record here.

Regarding `CCC(C)n1ncn(-c2ccc(N3CCN(c4ccc(OCC5COC(Cn6cncn6)(c6ccc(Cl)cc6Cl)O5)cc4)CC3)cc2)c1=O` (stereo not drawn) [Itraconazole], the MIC in experiment [1] (setting [9]) is 0.5 µg/mL (≈ 0.709 µM); in experiment [1] (setting [10]), 1 µg/mL (≈ 1.42 µM); in experiment [2] (setting [11]), 0.06 µg/mL (≈ 0.085 µM); in experiment [2] (Table 4, repeated MIC study), 0.06 µg/mL (≈ 0.085 µM); in experiment [3] (setting [12]), 0.5 µg/mL (≈ 0.709 µM); in experiment [3] (setting [13]) it was 1 µg/mL (≈ 1.42 µM). The MIC in experiment [3] (Table 4, repeated MIC study, agent alone, listed as Itraconazone) is 1 µg/mL (≈ 1.42 µM); in experiment [4] it was greater than 0.5 µg/mL; in experiment [5] it was greater than 0.0312 µg/mL; in experiment [6], greater than 0.5 µg/mL.
As to `CC(=O)N1CCN(c2ccc(OCC3COC(Cn4ccnc4)(c4ccc(Cl)cc4Cl)O3)cc2)CC1` (stereo not drawn) [Ketoconazole], the MIC in experiment [1] (setting [9]) was determined as 16 µg/mL (≈ 30.1 µM); in experiment [1] (setting [10]), 8 µg/mL (≈ 15.1 µM); in experiment [2] (setting [11]), 0.06 µg/mL (≈ 0.113 µM); in experiment [2] (Table 4, repeated MIC study), 0.06 µg/mL (≈ 0.113 µM); in experiment [3] (setting [12]), 16 µg/mL (≈ 30.1 µM); in experiment [3] (setting [13]), 8 µg/mL (≈ 15.1 µM). In addition, the values for the MIC in experiment [4], in experiment [5] and in experiment [6] were greater than 4 µg/mL, greater than 0.0312 µg/mL and greater than 4 µg/mL, respectively. In experiment [7], the “Sensitivity of cultured Candida albicans” value was “sensitive”.
With `NC[C@H]1O[C@H](O[C@H]2[C@H](O)[C@@H](O[C@H]3O[C@H](CO)[C@@H](O)[C@H](N)[C@H]3O)[C@H](N)C[C@@H]2N)[C@H](N)C[C@@H]1O` [tobramycin], the “Sensitivity of cultured bacteria” value in experiment [8] is listed as “sensitive”.
